Data reported in patent US20230075365A1, “HERBICIDE COMBINATIONS COMPRISING GLUFOSINATE AND SELECTED PPO INHIBITORS” (BASF SE, priority 2020, published 2023).

Legend:
Waterhemp = test: Greenhouse post emergence treatment, visual herbicidal activity against Waterhemp; assay type: in vivo, Amaranthus tuberculatus; details: scale from 0 to 100
Text: (§1) Synergism can be described as an interaction where the combined effect of two or more compounds is greater than the sum of the individual effects of each of the compounds. The presence of a synergistic effect in terms of percent control, between two mixing partners (X and Y) can be calculated using the Colby equation (Colby, S. R., 1967, Calculating Synergistic and Antagonistic Responses in Herbicide Combinations, Weeds, 15, 21-22):
(§2) When the observed combined control effect is greater than the expected (calculated) combined control effect (E), then the combined effect is synergistic.
Pots with 0.3 L of volume were filled with soil (SunGro Horticulture, Agawam, Mass. 01001) to grow one plant per pot in the greenhouse until the desired developmental stage. Environmental conditions inside the greenhouse were set up for 25° C., 75% relative humidity, and 12 h light day-1 with natural sunlight or 500 μmol m-1 s-1 PAR (photosynthetically active radiation) for cloudy days. Glufosinate applications were always performed in full sunlight to achieve maximum activity. The test period extended to 2 to 21 days after treatment. During this time, the plants were tended, and their response to the individual treatments was evaluated. The evaluation was carried out by visual control using a scale from 0 to 100. […]

Kochia = test: Greenhouse post emergence treatment, visual herbicidal activity against Kochia; assay type: in vivo, Bassia scoparia; details: scale from 0 to 100
Text: as §1, §2
Pots with 0.3 L of volume were filled with soil (SunGro Horticulture, Agawam, Mass. 01001) to grow one plant per pot in the greenhouse until the desired developmental stage. Environmental conditions inside the greenhouse were set up for 25° C., 75% relative humidity, and 12 h light day-1 with natural sunlight or 500 μmol m-1 s-1 PAR (photosynthetically active radiation) for cloudy days. Glufosinate applications were always performed in full sunlight to achieve maximum activity. The test period extended to 2 to 21 days after treatment. During this time, the plants were tended, and their response to the individual treatments was evaluated. The evaluation was carried out by visual control using a scale from 0 to 100. 100 means no emergence of the plants or complete destruction of at least the above-ground parts, and 0 means no damage, or normal course of growth. Data shown are the mean of three replications.

Velvetleaf = test: Greenhouse post emergence treatment (Acifluorfen test method), herbicidal activity against Velvetleaf; assay type: in vivo, Abutilon theophrasti
Experimental: Pots with 0.8 L of volume were filled with soil (Sungro Horticulture, Agawam, Mass. 01001) to grow one plant per pot in the greenhouse until the desired developmental stage. Environmental conditions inside the greenhouse were set up for 30° C., 50% relative humidity, and 12 hr light day-1 with natural sunlight or 760 umol m-1 s-1 PAR (Photosynthetically active radiation) for cloudy days. Glufosinate applications were always performed in full sunlight to achieve maximum activity Pots with test plants grown to 3.5 to 4.5 inch (8.9 to 11.4 cm) tall were treated with the herbicidal compositions, which were obtained by diluting commercially available formulations with deionized water to desired concentration, and then sprayed using finely distributing nozzles on to the plants. The test period extended over 21 days after treatment (DAT). During this time, the plants were tended and their response to the individual treatments was evaluated.
The evaluation was done by calculating using the following Colby equation, wherein X was the effect in percent using acifluorfen at an application rate a, Y was the effect in percent using glufosinate at application rate b, and E was the expected effect (in %) of acifluorfen plus glufosinate at application rates a+b.
The value E corresponds to the effect (plant damage or injury) which is to be expected if the activity of the individual compounds is just additive. If the observed effect is higher than the value E calculated according to Colby, a synergistic effect is present.
The evaluation for the damage caused by the chemical compositions was carried out using a scale from 0 to 100%, compared to the untreated control plants. Here, 0 means no damage and 100 means complete destruction of the plants.
Adjuvants of ammonium sulfate (as AMS Liquid) and non-ionic surfactant (NIS, here as Induce) at rates of 1680 g/ha and 0.25% (v/v), respectively, were added in all treatments with Acifluorfen.

SMILES: CP(=O)(O)CCC(N)C(=O)O (racemic) [Glufosinate, (2RS)-2-amino-4-[hydroxy(methyl)phosphinoyl]butyric acid]
- Herbicidal activity against Waterhemp (1 DAT), Found (Waterhemp; Glufosinate 280 g ai/ha solo): 18
- Herbicidal activity against Kochia (21 DAT), Found (Kochia; Glufosinate 420 g ai/ha solo): 25
- Herbicidal activity against Velvetleaf, solo application, % activity (Velvetleaf; Glufosinate 123 g ai/ha solo, 7 DAT): 49%
- Herbicidal activity against Velvetleaf, solo application, % activity (Velvetleaf; Glufosinate 123 g ai/ha solo, 14 DAT): 56%
- Herbicidal activity against Velvetleaf, solo application, % activity (Velvetleaf; Glufosinate 123 g ai/ha solo, 21 DAT): 45%

SMILES: CCOC(=O)C(C)OC(=O)c1cc(Oc2ccc(C(F)(F)F)cc2Cl)ccc1[N+](=O)[O-] (centres unmarked) [Lactofen]
- Herbicidal activity against Waterhemp (1 DAT), Found (Waterhemp; Lactofen 5 g ai/ha solo): 3
- Herbicidal activity against Kochia (21 DAT), Found (Kochia; Lactofen 5.2 g ai/ha solo): 25

SMILES: CS(=O)(=O)NC(=O)c1cc(Oc2ccc(C(F)(F)F)cc2Cl)ccc1[N+](=O)[O-] [Fomesafen]
- Herbicidal activity against Kochia (21 DAT), Found (Kochia; Fomesafen 7.1 g ai/ha solo): 25

SMILES: O=C(O)c1cc(Oc2ccc(C(F)(F)F)cc2Cl)ccc1[N+](=O)[O-] [Acifluorfen]
- Herbicidal activity against Velvetleaf, solo application, % activity (Velvetleaf; Acifluorfen 7.176 g ai/ha solo, 7 DAT): 38%
- Herbicidal activity against Velvetleaf, solo application, % activity (Velvetleaf; Acifluorfen 7.176 g ai/ha solo, 14 DAT): 40%
- Herbicidal activity against Velvetleaf, solo application, % activity (Velvetleaf; Acifluorfen 7.176 g ai/ha solo, 21 DAT): 33%
